US10065948B2, “Histone deacetylase inhibitors and compositions and methods of use thereof” (CHDI Foundation, Inc., priority 2014, dated 2018)

Key:
[1] = test system: cellular histone deacetylase enzymatic activity in Jurkat E6-1 cells; test: Inhibition of cellular HDAC activity, Boc-Lys(Tfa)-AMC substrate (Cell Lys-TFA); format: cell-based
Experimental: The potency of the compounds is quantified by measuring the cellular histone deacetylase enzymatic activity using the fluorogenic substrate, Boc-Lys(Tfa)-AMC. After penetration in Jurkat E6-1 cells, the substrate is deacetylated to Boc-Lys-AMC. After cell lysis and cleavage by trypsin, the fluorophore AMC is released from the deacetylated substrate only. The fluorescence of the sample is directly related to the histone deacetylase activity in the sample.
Jurkat E6.1 cells are cultured according to standard cell culture protocols in Jurkat E6.1 Growth Media (RPMI without phenol red, 10% FBS, 10 mM HEPES, and 1 mM Sodium Pyruvate). Jurkat E6.1 cells are counted using a Coulter Counter and resuspended in Jurkat E6.1 growth media at a concentration of 75,000 cells/35 μL. 35 μL or 75,000 cells is seeded into Greiner microtitre assay plates. The plates are then incubated at 37° C. and 5% CO2 while other assay components are being prepared.
Stocks of 70 μL aliquots of the 10 mM compound in DMSO are prepared and stored at −20° C. From one stock aliquot of each compound to be tested and the reference compound, a 16-point serial dilution is prepared according to Table 1 using a 125 μL 16-channel Matrix multi-channel pipette.
2 μL (200×) of each diluted solution and each control (full activity: 100% DMSO alone or full inhibition 1 mM) is stamped into V-bottom polypropylene 384-well compound plates using either the Bravo, Janus, or 12.5 μL 16-channel Matrix multi-channel pipette. Each well with the 200× compound solution is diluted 1:20 by the addition of 38 μL Jurkat assay buffer+DMSO (9.5% DMSO, RPMI without phenol red, 0.09% FBS, 9 mM Hepes, and 0.9 mM Sodium Pyruvate equilibrated to room temperature)
5× (500 μM) substrate is prepared just prior to the addition to the assay. The 5× substrate is prepared by diluting a 100 mM Boc-Lys(Tfa)-AMC in DMSO solution 1:200 by adding it drop-wise to Jurkat assay medium (RPMI without phenol red, 0.1% FBS, 10 mM Hepes, and 1 mM Sodium Pyruvate equilibrated to 37° C.) while vortexing at slow speed to prevent precipitation.
10 mL of 3× lysis buffer is prepared with 8.8 ml of 3× stock lysis buffer (50 mM Tris-HCl, pH 8.0, 137 mM NaCl, 2.7 mM KCl, 1 mM MgCl2, 1% Nonidet P40 Substitute equilibrated to room temperature) and 1.2 mL of 3 mg/mL Trypsin equilibrated to room temperature.
5 μL of each solution of 1:20 diluted compound from above is transferred to the Greiner microtitre assay plates with 75,000 cells/well using the Bravo. Cells are then incubated for 2 hours at 37° C. and 5% CO2. […] The cells are then incubated for 3 hours at 37° C. and 5% CO2. Next, 25 μL of 3× lysis buffer is added to each well using either the 125 μL 16 channel pipette or the Bravo. The assay plate is then incubated overnight (15-16 hours) at 37° C. and 5% CO2. The following day, the plates are shaken on an orbital shaker for 1 minute at 900 rpm. Finally the top read fluorescence (Excitation: 355 nm, Emission: 460 nm) is measured using PerkinElmer EnVision.

[2] = test system: cellular histone deacetylase activity (Lys-Ac); test: Inhibition of cellular HDAC activity (Cell Lys-Ac); format: cell-based; settings: Lys-Ac substrate
[3] = Homo sapiens, Jurkat E6.1, Lys-TFA substrate

## Cc1c(F)cccc1[C@]1(C(=O)NO)Cc2snc(-c3ccccc3)c2C1 [Example 80, E1-(abs)-5-(3-Fluoro-2-methylphenyl)-N-hydroxy-3-phenyl-5,6-dihydro-4H-cyclopenta[d]isothiazole-5-carboxamide]
[1]; [3]
  IC50: 45 nM
[2]
  IC50: > 50000 nM

## O=C(NO)[C@@]1(c2ccccc2)CCc2ccccc21 [Example 88, E2-(abs)-N-hydroxy-1-phenyl-2,3-dihydro-1H-indene-1-carboxamide]
[1]; [3]
  IC50: > 50000 nM
[2]
  IC50: > 50000 nM

## Cc1c(F)cccc1C1(C(=O)NO)CCc2nn(CC(F)(F)F)cc2C1 (centres unmarked) [Example 35, 5-(3-Fluoro-2-methylphenyl)-N-hydroxy-1-(2,2,2-trifluoroethyl)-4,5,6,7-tetrahydro-1H-indazole-5-carboxamide and 5-(3-fluoro-2-methylphenyl)-N-hydroxy-2-(2,2,2-trifluoroethyl)-4,5,6,7-tetrahydro-2H-indazole-5-carboxamide]
[1]; Lys-TFA substrate
  IC50: 770 nM
[2]
  IC50: > 50000 nM

## Cc1c(F)cccc1C1(C(=O)NO)Cc2nc(-c3cccc(F)c3)sc2C1 (single isomer, unassigned) [Example 65, E2-(abs)-5-(3-fluoro-2-methylphenyl)-2-(3-fluorophenyl)-N-hydroxy-5,6-dihydro-4H-cyclopenta[d]thiazole-5-carboxamide]
[2]
  IC50: > 50000 nM

## Cc1c(F)cccc1[C@]1(C(=O)NO)Cc2cnn(-c3c(F)cccc3F)c2C1 [Example 11, (S)-1-(2,6-Difluorophenyl)-5-(3-fluoro-2-methylphenyl)-N-hydroxy-1,4,5,6-tetrahydrocyclopenta[c]pyrazole-5-carboxamide]
[1]; [3]
  IC50: 27 nM
[2]
  IC50: > 50000 nM

## Cc1cc(F)ccc1-n1ncc2c1C[C@](C(=O)NO)(c1cccc(F)c1C)C2 [Example 22, (S)-5-(3-Fluoro-2-methylphenyl)-1-(4-fluoro-2-methylphenyl)-N-hydroxy-1,4,5,6-tetrahydrocyclopenta[c]pyrazole-5-carboxamide]
[1]; [3]
  IC50: 11 nM
[2]
  IC50: > 50000 nM

## Cc1c(F)cccc1C1(C(=O)NO)CCc2nn(-c3ccccc3F)cc2C1 (single isomer, unassigned) [Example 33, E1-(abs)-5-(3-Fluoro-2-methylphenyl)-2-(2-fluorophenyl)-N-hydroxy-4,5,6,7-tetrahydro-2H-indazole-5-carboxamide]
[1]; Lys-TFA substrate
  IC50: 410 nM
[2]
  IC50: > 50000 nM

## Cc1c(F)cccc1C1(C(=O)NO)CCc2nn(-c3ccccc3F)cc2C1 (single isomer, unassigned) [Example 34, E2-(abs)-5-(3-fluoro-2-methylphenyl)-2-(2-fluorophenyl)-N-hydroxy-4,5,6,7-tetrahydro-2H-indazole-5-carboxamide]
[1]; Lys-TFA substrate
  IC50: 26700 nM
[2]
  IC50: > 50000 nM

## Cc1c(F)cccc1[C@]1(C(=O)NO)Cc2cnn(-c3ccc(Cl)cc3)c2C1 [Example 8, (S)-1-(4-Chlorophenyl)-5-(3-fluoro-2-methylphenyl)-N-hydroxy-1,4,5,6-tetrahydrocyclopenta[c]pyrazole-5-carboxamide]
[1]; [3]
  IC50: 103 nM
[2]
  IC50: > 50000 nM

## Cc1c(F)cccc1[C@]1(C(=O)NO)Cc2cnc(-c3ccc(F)cc3)nc2C1 [Example 55, (S)-6-(3-Fluoro-2-methylphenyl)-2-(4-fluorophenyl)-N-hydroxy-6,7-dihydro-5H-cyclopenta[d]pyrimidine-6-carboxamide]
[1]; [3]
  IC50: 260 nM
[2]
  IC50: > 50000 nM

## Cc1c(F)cccc1[C@]1(C(=O)NO)CCc2c1cnn2-c1ccccc1 [Example 54, (R)-4-(3-Fluoro-2-methylphenyl)-N-hydroxy-1-phenyl-1,4,5,6-tetrahydrocyclopenta[c]pyrazole-4-carboxamide]
[1]; [3]
  IC50: 320 nM
[2]
  IC50: > 50000 nM

## Cc1c(F)cccc1[C@]1(C(=O)NO)Cc2cnn(-c3ccc(F)cc3Cl)c2C1 [Example 90, (S)-1-(2-Chloro-4-fluorophenyl)-5-(3-fluoro-2-methylphenyl)-N-hydroxy-1,4,5,6-tetrahydrocyclopenta[c]pyrazole-5-carboxamide]
[1]; [3]
  IC50: 15 nM
[2]
  IC50: > 50000 nM
